# From patent US5006515A, “Pharmaceuticals, phosphorus-containing 2-isoxazolines and isoxazoles contained therein” (Hoechst Aktiengesellschaft, priority 1987, dated 1991)
# How the values were obtained:
# [1] = system: Listeria monocytogenes; experiment: DTH reaction in mice infected with Listeria monocytogenes; type: in vivo, female NMRI mice
# Description: In this experiment, the specific, cell-mediated immunity against the bacterium Listeria monocytogenes was investigated by means of the DTH reaction Female NMRI mice were infected with 2×10^2 live bacteria and then divided into groups each containing 10 animals. The treatment of the animals by intraperitoneal administration of the product in doses of 0.1, 1 or 10 mg/kg was started the same day. This treatment was repeated after 2, 4 and 6 days. Infected animals in a fourth experimental group, which received merely the pure vehicle i.p. in place of the product, acted as positive control. On day 13 of the experiment the DTH reaction was induced by injection of a soluble antigen obtained from Listeria monocytogenes into the footpad. 10 uninfected animals in a 5th experimental group (negative control) were likewise treated with the antigen in order to rule out non-specific reactions to the antigen challenge 24 hours after the administration of antigen, the percentage increase in the paw volume was determined as a measure of the induced DTH reaction.
# The same experimental system was also used to examine the effect of the test substance on i.p. administration of 10 mg/kg on the DTH reaction of female NMRI mice after infection with differing amounts of the bacterium Listeria monocytogenes. The animals received either 2×10^2 or 5×10^2 organisms. According to this, although the DTH reaction is increased by the test substance at both organism concentrations, this stimulation is distinctly more pronounced in the animal group infected with the lower number of organisms.
# [2] = system: Staphylococcus aureus; experiment: Staphylococcus aureus infection of immunosuppressed mice; type: in vivo, female B6D2F1 mice; conditions: up to day 45
# Text: It is known that distinct immunosuppression can be induced in experimental animals by multiple administration of a cytostatic and is expressed by an increased susceptibility to infection with a drastic rise in mortality. […] Another group of infected animals which had not, however, been immunosuppressed by pretreatment with ADM was included as negative control. The immunosuppressed animals in the three active product groups received, on 4 consecutive days starting one day before the infection, the test substance, with intraperitoneal doses each of 0.1, 1 or 10 mg/kg being administered. Each experimental group comprised 20 animals.
# [3] = system: antibodies against E. coli organisms; experiment: Antibody response of the mouse to dead E. coli organisms (ELISA); type: in vivo, female NMRI mice; conditions: for Antibody response to dead E. coli organisms, IgM: 10-day value; for Antibody response to dead E. coli organisms, IgG: 20-day value
# Description: (§1) Groups each containing 5 female NMRI mice with a body weight of 18 to 20 g were formed, and each of the animals received either intravenous administration of 10^8 heat-killed E coli bacteria or 300 Lf (limes of flocculation) of tetanus toxoid. Oral administration of the test substance in physiological saline (PBS) in doses of 5, 10, 20, 40 or 80 mg/kg, or of the pure vehicle (control groups), was carried out at the same time as administration of the antigen. After 10 and 20 days, blood was taken from the retroorbital venous plexus of the mice and, in the sera obtained therefrom, the IgG and IgM antibodies against E. coli organisms and tetanus toxoid were determined with the aid of the ELISA technique known to those skilled in the art, using homologous lipopolysaccharide from E. coli and tetanus toxoid, respectively, as antigen. The magnitude of the extinctions measured in the photometer is a measure of the amount of antibodies formed.
# [4] = system: peritoneal macrophages; experiment: Activation of peritoneal macrophages: chemiluminescence (oxidative metabolism); conditions: for Chemiluminescence: single dose
# [5] = system: antibodies against tetanus toxoid; experiment: Antibody response of the mouse to tetanus toxoid (ELISA); type: in vivo, female NMRI mice; conditions: 20-day value
# Description: as §1
# [6] = biological target: leucine aminopeptidase; experiment: Inhibition of leucine aminopeptidase; type: biochemical; conditions: substrate L-leucine 4-nitroanilide
# Description: The activity of the enzyme aminopeptidase B was determined photometrically using the substrate L-lysine 2-naphthylamide at room temperature. […] In the same way, the inhibition of leucine aminopeptidase was investigated using L-leucine 4-nitroanilide as enzyme substrate. The IC50 values are compiled in Table 6.
# [7] = system: Salmonella typhimurium; experiment: Chronic Salmonella typhimurium infection in the mouse; type: in vivo, female NMRI mice; conditions: 10 × 5 mg/kg i.p.; day 22
# Description: Female NMRI mice (20 animals/group) were infected by intravenous administration of 5×10^3 Salmonella typhimurium organisms. The animals subsequently developed a chronic infection which was characterized by persistent bacterial colonization of the organs, such as the liver and the spleen, with necrosis. The test substance was administered intraperitoneally in a dose of 5 mg/kg at intervals of two days from day 3 to day 21 after infection. The animals in a control group received only the vehicle. On day 22 after the infection, the mortality in both experimental groups was determined, and the organs of the animals which survived were examined for organisms and necrosis.
structure (smiles),measurement,setting,value
"O=P(O)(O)C1CC(c2ccccc2)=NO1 (racemic) [Example 34, 3-Phenyl-2-isoxazolin-5-ylphosphonic acid]",DTH reaction % increase in the paw volume,"[1]; 2×10^2 bacteria, 0.1 mg/kg 4 × i.p.",13.3 ± 9.7%
same,DTH reaction % increase in the paw volume,"[1]; 2×10^2 bacteria, 1.0 mg/kg 4 × i.p.",15.0 ± 7.0%
same,DTH reaction % increase in the paw volume,"[1]; 2×10^2 bacteria, 10.0 mg/kg 4 × i.p., p <0.05 (Student's t test)",19.2 ± 9.4%
same,DTH reaction % increase in the paw volume,"[1]; Table 13 experiment: 2 × 10^2 organisms, 4 × 10 mg/kg i.p.",30.9 ± 15.3%
same,DTH reaction % increase in the paw volume,"[1]; Table 13 experiment: 5 × 10^2 organisms, 4 × 10 mg/kg i.p.",17.9 ± 12.1%
same,Mortality,[2]; 0.1 mg/kg 4 × i.p.,5/20
same,Mortality,[2]; 1.0 mg/kg 4 × i.p.,8/20
same,Mortality,[2]; 10.0 mg/kg 4 × i.p.,8/20
same,"Antibody response to dead E. coli organisms, IgM",[3]; 5 mg/kg 1 × p.o.,1217 ± 264 mE492nm
same,"Antibody response to dead E. coli organisms, IgG",[3]; 5 mg/kg 1 × p.o.,1377 ± 324 mE492nm
same,"Antibody response to dead E. coli organisms, IgM",[3]; 10 mg/kg 1 × p.o.,1411 ± 179 mE492nm
same,"Antibody response to dead E. coli organisms, IgG",[3]; 10 mg/kg 1 × p.o.,1663 ± 191 mE492nm
same,"Antibody response to dead E. coli organisms, IgM",[3]; 20 mg/kg 1 × p.o.,1657 ± 231 mE492nm
same,"Antibody response to dead E. coli organisms, IgG",[3]; 20 mg/kg 1 × p.o.,1951 ± 468 mE492nm
same,"Antibody response to dead E. coli organisms, IgM",[3]; 40 mg/kg 1 × p.o.,1523 ± 288 mE492nm
same,"Antibody response to dead E. coli organisms, IgG",[3]; 40 mg/kg 1 × p.o.,2434 ± 312 mE492nm
same,"Antibody response to dead E. coli organisms, IgM",[3]; 80 mg/kg 1 × p.o.,1459 ± 208 mE492nm
same,"Antibody response to dead E. coli organisms, IgG",[3]; 80 mg/kg 1 × p.o.,2217 ± 273 mE492nm
same,Chemiluminescence,[4]; 5 mg/kg i.p.,842 ± 42 RLU/15 min × 10^3
same,Chemiluminescence,[4]; 5 mg/kg p.o.,728 ± 101 RLU/15 min × 10^3
same,Chemiluminescence,[4]; 10 mg/kg i.p.,2842 ± 223 RLU/15 min × 10^3
same,Chemiluminescence,[4]; 10 mg/kg p.o.,2140 ± 156 RLU/15 min × 10^3
same,Chemiluminescence,[4]; 20 mg/kg i.p.,4935 ± 516 RLU/15 min × 10^3
same,Chemiluminescence,[4]; 20 mg/kg p.o.,3286 ± 283 RLU/15 min × 10^3
same,Chemiluminescence,[4]; 40 mg/kg i.p.,6990 ± 290 RLU/15 min × 10^3
same,Chemiluminescence,[4]; 40 mg/kg p.o.,4405 ± 197 RLU/15 min × 10^3
same,"chemiluminescence, in words",[4]; i.p. and p.o.,pronounced dose-dependent increase in chemiluminescence
same,"Antibody response to tetanus toxoid, IgG",[5]; 5 mg/kg 1 × p.o.,865 ± 182 mE492nm
same,"Antibody response to tetanus toxoid, IgG",[5]; 10 mg/kg 1 × p.o.,1213 ± 255 mE492nm
same,"Antibody response to tetanus toxoid, IgG",[5]; 20 mg/kg 1 × p.o.,1852 ± 261 mE492nm
same,"Antibody response to tetanus toxoid, IgG",[5]; 40 mg/kg 1 × p.o.,1357 ± 348 mE492nm
same,"Antibody response to tetanus toxoid, IgG",[5]; 80 mg/kg 1 × p.o.,1154 ± 232 mE492nm
same,Leucine aminopeptidase IC50,[6],24 μug/ml
same,% of surviving animals with liver necroses,[7],58%
same,% of surviving animals with organism-positive livers,[7],67%
same,% of surviving animals with severe liver necroses,[7],42%
same,% of surviving animals with spleen necroses,[7],0%
same,Mortality,[7],8/20
